Test results: US7226932B2, “Self-emulsifying drug delivery system” (priority 1994, dated 2007)
≈ marks a conversion by molar mass, not a printed value. Read-outs that look alike come from different tables or passages of the source.

Tests used:
[1] = Solubility in water and oil; format: physicochemical
[2] = Bioavailability measured in animals; format: in vivo
[3] = Oral administration to rats, plasma pharmacokinetics; format: in vivo; details: rat, suspension in tween 80, methylcellulose and water
Protocol: Rats: […] Three rats were administered with each dose vehicle. […] Plasma concentrations of the pharmaceutical were determined as previously described in the dog and the same pharmacokinetic parameters were determined.

HIV protease = HIV protease (Human immunodeficiency virus type 1 group M subtype B, UniProt P04585); experiment: IC50 and IC90 pharmaceutical plasma levels

## CC(C)CN(C[C@@H](O)[C@H](Cc1ccccc1)NC(=O)[C@H](CC(N)=O)NC(=O)c1ccc2ccccc2n1)C(=O)NC(C)(C)C [Example 1, N^1-[3-[N^2-[[(1,1-dimethylethyl)amino]carbonyl]-N^2-(2-methylpropyl)amino]-2(R)-hydroxy-1(S)-(phenylmethyl)propyl]-2(S)-[N^3-(2-quinolinylcarbonyl)amino]butanediamide]
[1]
  dose to solubility ratio: > 75,000
[1]; oil, oil or lipid, read-out: solubility in oil
  solubility: < 1000 µg/mL
[1]; water, read-out: solubility in water
  solubility: ~10 µg/mL (≈ 16.5 µM)
[2]; in vivo, normal formulation methods, read-out: bioavailability
  bioavailability: < 1%
[2]; measured in animals, without solubilizer
  bioavailability: very low
[2]; utilizing a solubilizer in the dosage formulation
  increase of bioavailability: 25–30 fold
[3]
  bioavailability: ~1%
HIV protease
  IC50: 16.5 nM
  IC90: 0.1 µg/mL (≈ 0.165 µM)
other
  melting point: 107 to 109.8 °C
